Measured values as given in patent US8597646B2, “Methods and compositons featuring TGF-beta antagonists for the treatment of marfan syndrome and associated disorders” (The Johns Hopkins University, priority 2005, dated 2013).
Entries after “also recorded” stand apart in the source; their conditions may differ.

Experiments:
Format in all cases: in vivo, mouse
mdx mice [1] = test: Muscle regeneration after cardiotoxin injury in 9-month old mdx mice
Experimental: (§1) All mouse protocols were approved by the Animal Care and Use Committee of Johns Hopkins University School of Medicine. Creation of the mouse line harboring the Fbn1 mutation C1039G has been previously described (Judge, D. P. et al. (2004) J Clin Invest 114, 172-81). All analyses were performed in male mice after back-crossing (>9 times) this mutation into the C57BL/6J background, allowing valid comparisons between litters. Mice were sacrificed with an inhalation overdose of halothane (Sigma-Aldrich) or by cervical dislocation. For muscle regeneration experiments in Fbn1^C1039G/+ mice, 100 μl cardiotoxin (10 μM Naja nigricollis; Calbiochem, La Jolla, Calif.) (Goetsch, S. C. et al. (2003) Physiol Genomics 14, 261-71; Cohn, R. D. et al. (2002) Cell 110, 639-48) was injected into the tibialis anterior muscle of wild-type and Fbn1^C1039G/+ mice either treated or untreated with TGFβ neutralizing antibody (n=6, each group) at 4 months of age. Subsequently, mice were analyzed at 4, 7, 18 and 28 days after injury. For regeneration experiments in mdx mice we injected 150 μl of cardiotoxin into the tibialis anterior muscle of wild-type and mdx mice, either treated or untreated with TGFβ neutralizing antibody (n=6 each group) at 9 months of age and analyzed skeletal muscle at 4 days and 18 days after injection.
Mice were continued on oral therapy for 6 months and sacrificed. […] Age-matched wild-type and mdx mice (placebo-treated) served as a control group. After 6 months of treatment, forelimb and hindlimb grip strength was assessed using an automated grip strength meter (Columbus Instruments, Columbus, Ohio). […] Total peak force (in Newtons) was determined by an electronic strain gauge as previously described and corrected for body weight (Wagner, K. R., et al. (2002) Ann Neurol 52, 832-6). […] The degree of fatigue was calculated by comparing the first two pulls to the last two pulls with the decrement between pulls 1+2 and pulls 4+5 providing a measure of fatigue. […]

mdx mice [2] = test: Forelimb and hindlimb grip strength and fatigue in mdx mice
Experimental: Mice were continued on oral therapy for 6 months and sacrificed. […] Age-matched wild-type and mdx mice (placebo-treated) served as a control group. After 6 months of treatment, forelimb and hindlimb grip strength was assessed using an automated grip strength meter (Columbus Instruments, Columbus, Ohio). The experiments for forelimb and hindlimb grip strength testing were conducted at different days allowing for a minimum recovery period of 10 days. Total peak force (in Newtons) was determined by an electronic strain gauge as previously described and corrected for body weight (Wagner, K. R., et al. (2002) Ann Neurol 52, 832-6). Five measurements within 2 minutes were taken from each animal. The three highest measurements for each animal were averaged to give the strength score. The degree of fatigue was calculated by comparing the first two pulls to the last two pulls with the decrement between pulls 1+2 and pulls 4+5 providing a measure of fatigue. Similarly, functional measurements were performed in 6 month old fibrillin-1 deficient mice (Fbn1^mgR) (Pereira, L. et al. (1997) Nat Genet. 17, 218-22) after 5 months of treatment.

C1039G/+ mice = test: Aortic root growth by echocardiography in C1039G/+ mice, 4 months of treatment
Experimental: Markers of TGFβ antagonism have included reduced plasma levels of free TGFβ, reduced intracellular initiation of the TGFβ signaling cascade, and reduced tissue expression of TGFβ-responsive genes. […] Three independent measurements of the aortic root were made from the long axis echo view in systole at each of 3 time points (baseline, 2 and 4 months of treatment; FIG. 8A). All analyses were performed blinded to genotype and treatment arm. […] This represents the first therapeutic strategy for MFS that derives from interrogation of disease pathogenesis and the first possibility for primary prevention of disease manifestations.

Fbn1C1039G/+ mice = test: Muscle regeneration after cardiotoxin-induced injury in Fbn1C1039G/+ mice; conditions: 4 and 18 days after injury, monopotassium salt
Experimental: as §1, with “For muscle regeneration experiments in Fbn1^C1039G/+ mice, 100 μl cardiotoxin (10 μM Naja nigricollis; Calbiochem, La Jolla, Calif.) (Goetsch, S. C. et al. (2003) Physiol Genomics 14, 261-71; Cohn, R. D. et al. (2002) Cell 110, 639-48) was injected into the tibialis anterior muscle of wild-type and Fbn1^C1039G/+ mice either treated or untreated with TGFβ neutralizing antibody (n=6, each group) at 4 months of age.” left out
Mice were continued on oral therapy for 6 months and sacrificed. […] After 6 months of treatment, forelimb and hindlimb grip strength was assessed using an automated grip strength meter (Columbus Instruments, Columbus, Ohio). […] Total peak force (in Newtons) was determined by an electronic strain gauge as previously described and corrected for body weight (Wagner, K. R., et al. (2002) Ann Neurol 52, 832-6). […]

For CCCCc1nc(Cl)c(CO)n1Cc1ccc(-c2ccccc2-c2nnn[nH]2)cc1.[K] [losartan, 2-butyl-4-chloro-1-[p-(o-1H-tetrazol-5-ylphenyl)benzyl]imidazole-5-methanol monopotassium salt], the “Muscle regeneration in mdx mice, in words” value (mdx mice [1]; 4 days after cardiotoxin, neonatal myosin staining) was “active regeneration comparable to that seen in wild-type mice”, the “Fibrosis (vimentin) after injury, in words” value (mdx mice [1]; 18 days after cardiotoxin, monopotassium salt) was “reduced fibrosis; also recorded: marked reduction in fibrosis” and the “Neonatal myosin positive fibers” value (mdx mice [1]; four days after injury, untreated mdx 268±12, wild-type 689±19) was 513±14 neonatal myosin positive fibers per tibialis anterior muscle. The “Forelimb grip strength (peak force), male” value (mdx mice [2]; 6 months of losartan, untreated mdx 1.25±0.15) was 1.64±0.29 N, the “Forelimb grip strength (peak force), female” value (mdx mice [2]; 6 months of losartan, untreated mdx 1.32±0.12) was 1.41±0.15 N and the “Hindlimb grip strength (peak force), female” value (mdx mice [2]; 6 months of losartan, untreated mdx 1.39±0.14) was 1.79±0.14 N. For the same compound, the “Hindlimb grip strength (peak force), male” value (mdx mice [2]; 6 months of losartan, untreated mdx 1.45±0.19) was 1.89±0.23 N, the “Muscle fatigue, forelimb test, female” value (mdx mice [2]; 6 months of losartan, untreated mdx 34.7±5.7) was 15.2±6% and the “Muscle fatigue, forelimb test, male” value (mdx mice [2]; 6 months of losartan, untreated mdx 36.3±6.5) was 16.3±5%. The “Muscle fatigue, hindlimb test, female” value (mdx mice [2]; 6 months of losartan, untreated mdx 37.6±6) was 17.1±4%, the “Muscle fatigue, hindlimb test, male” value (mdx mice [2]; 6 months of losartan, untreated mdx 39.5±6) was 16.2%±5 and the “Muscle fatigue in response to repetitive challenge, in words” value (mdx mice [2]; 6 months of treatment) was “significantly less muscle fatigue”. For the same compound, the “Grip strength versus untreated mdx mice, in words” value (mdx mice [2]; 6 months of treatment, male and female) was “increased forelimb and hindlimb grip strength”, the “Aortic growth during the 4 months of treatment” value (C1039G/+ mice; C1039G/+ mice from 7 weeks of age, losartan 50 mg/kg or propranolol 40 mg/kg, aortic root, echo, placebo 0.44±0.09) was 0.03±0.07 mm and the “Aortic growth / protection, in words” value (C1039G/+ mice; C1039G/+ mice, compared with wild-type or with losartan) was “indistinguishable from that seen in wild-type mice”. The “Muscle regeneration after cardiotoxin injury, in words” value (Fbn1C1039G/+ mice; listed as Losartan) was “rescued; also recorded: normal initiation of muscle regeneration” and the “Muscle regeneration after cardiotoxin injury, in words” value (Fbn1C1039G/+ mice) was “markedly improved”.
